According to a melting point compilation (Tetko et al.; mined from patent text by program, amines drawn as free bases though some values may be those of a salt):

melting point | Compound
113 to 114 °C | Fc1cccc(F)c1-c1ccncc1
186 to 188 °C | COc1ccc(-c2ocnc2-c2cc(OC)c([N+](=O)[O-])c(OC)c2)cc1O
309 to 311 °C | Oc1ccc(O)c(-c2nc3cc(O)ccc3o2)c1
218 to 220 °C | CC(CC(=O)c1ccccc1)C(=O)N1CCC[C@H]1C(=O)O (stereo partly specified)
68 to 73 °C | O=C(O)c1cc(CCCBr)ccc1O
68 to 71 °C | C=CC(=O)OCCSc1ccc2sc3ccccc3c(=O)c2c1
176 to 178 °C | Cc1cc(-c2nc(-c3ccncc3)nn2C)cc(C)n1
88 to 90 °C | Brc1cccc(-c2csc(Br)n2)c1
156 to 157 °C | CCOC(=O)c1cnc2n(c1=O)CCCC2CC(=O)O (stereo unspecified)
51 to 52 °C | CCCOc1cc2c(cc1C=O)C(C)(C)CCC2(C)C
76 °C | O=C(CCCl)Nc1ccc(F)c(F)c1
60 to 61 °C | O=C(CCCCCCCBr)OC(C(=O)c1ccccc1)c1ccccc1 (stereo unspecified)
64 to 66 °C | CCN(CC)CCNC(=O)c1cc(Cl)c2cc(I)ccc2n1
60 to 63 °C | Cc1ccc(S(=O)(=O)OCCc2ccc3[nH]cc(S(=O)(=O)c4ccccc4)c3c2)cc1
52 to 56 °C | O=C1SC(=O)C(F)=C1F
56 to 61 °C | CCCCOC(=O)C(=O)c1ccc2c(c1)C1(C)CCN(C)C1N2C (stereo unspecified)
112 to 114 °C | CC(=O)C(O)C1OC(n2cc(Br)c(=O)[nH]c2=O)CC1N=[N+]=[N-] (stereo unspecified)
79 to 81 °C | c1ccc(CSc2nc3ccccn3n2)cc1
259 to 264 °C | C/C(=C(\C#N)C(=S)/N=C/N(C)C)N1CCCN(c2ccc(Cl)cc2)CC1
165 to 167 °C | CC(=O)CCC(=O)c1ccc(Cl)cc1
64 °C | C#CCn1c(C(F)(F)F)c(CO)oc1=O
201 °C | Cn1c(=O)c2c(ncn2CCN2CCC(c3c[nH]c4ccccc34)CC2)n(C)c1=O
91 to 92 °C | Cc1onc(-c2ccc(Cl)cc2)c1CCl

melting point | Compound
190 to 192 °C | CCNC(=O)[C@@H]1CCCN1C(=O)[C@H](C)NC(=O)C1CCCCC1
98 to 101 °C | CC(C)CC1(C)C(=O)N(Cc2ccccc2)CCN1Cc1ccccc1 (stereo unspecified)
143 to 145 °C | CC(C)(C)c1ccc(C(=O)c2ccc3n2Cc2ccccc2N(C(=O)c2ccc(C4CCCCC4)cc2)C3)cc1
98 to 102 °C | CNCC(O)C1=CSC2C=CC=CC12 (stereo unspecified)
166 to 168 °C | CC(C)c1ccc(C(=O)[C@@H]2C[C@H]2c2ccccc2)c(C(C)C)c1OS(N)(=O)=O (relative stereo)
202 to 204 °C | Cc1cc(C(=O)Nc2nc(-c3ccoc3)c(C(=O)C3CCOCC3)s2)ccn1
185 to 186 °C | Cc1c2c(c(C(C)(O)c3ccc(C(C)C)cc3)c(C)c1NC(=O)OC(C)(C)C)OCC2 (stereo unspecified)
181 to 183 °C | Cc1ccccc1COc1cccnc1NC(=S)Nc1ccc(Cl)cc1
175 °C | Oc1ccc2c(c1)CC(NCC(O)c1cccc(Cl)c1)CC2 (stereo unspecified)
77 to 79 °C | Fc1cc(F)c(C(Cl)(Cl)Cl)cc1C(Cl)(Cl)Cl
312 to 314 °C | O=C(O)COc1ccc(C=CC(=O)c2ccc(C(=O)O)cc2)cc1
58 °C | CN(CCCCCCNC(=NCCCOc1cccc(CN2CCCCC2)c1)NC#N)CCN(Cc1ccc(F)cc1)c1ccccn1
273 to 275 °C | COc1ccccc1C=C1CCc2c1oc1ccc(C(=O)O)cc1c2=O
39 to 65 °C | Cc1cccc(COCc2cccc(OCc3ccc4ccccc4n3)c2)c1C(=O)O
218 to 220 °C | NC(=O)c1ccccc1C1c2ccc(Cl)cc2Oc2cc(Cl)ccc21
145 °C | CC(=NOCCOc1ccc(CC2SC(=O)N(C(c3ccccc3)(c3ccccc3)c3ccccc3)C2=O)cc1)c1ccc(-c2ccccc2)cc1 (stereo unspecified)
117 to 119 °C | COC(=O)C(=Cc1cc(OC)c(OC)cc1Br)c1ccccc1C(=O)OC
149 to 150 °C | COc1cc(-c2nc(=O)c3ccccc3s2)ccn1
170 to 176 °C | CC(=O)C(=Cc1cc(O)c(O)c([N+](=O)[O-])c1)c1ccccc1
66 to 67 °C | COC(=O)C(C)(C)OCc1nn(Cc2ccccc2)c2ccccc12
130 to 132 °C | C[Si](C)(C)C#C[C@@]1(O)[C@@H](COC(=O)c2ccc(Cl)cc2)OC(O)[C@@H]1O (stereo partly specified)
102 to 103 °C | CC(=O)Nc1nc(CCc2ccc(NC(N)=S)cc2)c(Cc2ccc(S(C)(=O)=O)cc2)s1
65 to 66 °C | COc1ccc2cc([C@H](C)C(=O)OC[C@](C)(O)CO)ccc2c1

melting point | Compound
55 °C | COc1cc2c(cc1Br)c1ccccc1n2CCC(C)CCCC(C)C (stereo unspecified)
119 to 125 °C | CC(C)CNC(=O)C(O)C(CC1CCCCC1)NC(=O)C(Cc1c[nH]cn1)NC(=O)C(CC(=O)N1CCOCC1)Cc1cccc2ccccc12 (mixture of isomers)
92 to 93 °C | OCCCCCCCCCCCc1ccc(O)c(O)c1
72 to 75 °C | Cn1c(C(F)(F)F)cc(=O)n(-c2ccc3snc(C4OCC(CS(C)=O)O4)c3c2)c1=O (stereo unspecified)
153 to 155 °C | CCOC(=O)c1[nH]c(=O)c(CC(C)C)[n+]([O-])c1OC
86 to 87 °C | COC(=O)C(=O)c1ccc(OCCCC(=O)c2ccc3ccccc3c2)cc1
188 to 189 °C | C=C1CC(Cn2cc(C)c(=O)[nH]c2=O)(c2ccc(Cl)cc2)OC1=O (stereo unspecified)
208 to 210 °C | Fc1ccc(/C=C/C2=CCN(Cc3c[nH]c4ncccc34)CC2)cc1F
158 to 160 °C | CC(=O)c1cn(C(c2ccccc2)(c2ccccc2)c2ccccc2)cn1
159 to 161 °C | COCC(=O)OC(CC1CC1)c1ccc(Cl)c2nc3n(c12)CCCN3c1ccc(Cl)cc1Cl (stereo unspecified)
63 °C | CN(C)Cc1ccc(CSCCNC(=C[N+](=O)[O-])NCCCN(C)CCN(Cc2ccc(F)cc2)c2ccccn2)o1
189 to 190 °C | O=C(OCc1ccc(C(F)(F)F)cc1)N1CCC2(CC1)Cn1cc([N+](=O)[O-])nc1O2
180 °C | NC[C@@H]1CNc2cccc(-c3ccccc3C(F)(F)F)c2O1
211 to 213 °C | O=c1[nH]c(CCc2ccccc2OCc2ccccc2)ccc1-c1nnn[nH]1
148 to 151 °C | CCOc1ccc(C2=NN(c3ccc(C(=O)N4CCN(c5cnn(-c6ccccc6)c(=O)c5Cl)CC4)cc3)C(=O)[C@@H]3CC=CC[C@H]23)cc1OCC
115 °C | OC1CSC(Oc2cccc3conc23)C(O)C1O (stereo unspecified)
245 to 246 °C | CC(C)(C)C(=O)OCCOCn1cnc2c(=O)[nH]c(N)nc21
183 to 185 °C | COc1cccc(-n2c(-c3ccccc3)cc(=O)c(C)c2-c2ccccc2)c1
249 to 252 °C | COc1cccc(-c2ccnc3c(C(N)=O)ncn23)c1
116 °C | Clc1nc(Cl)c2ccsc2n1
119 to 120 °C | CCCCOc1cc(/C=C/C(=O)NS(=O)(=O)CCC(C)C)n(Cc2ccc(Cl)cc2Cl)n1
248 to 250 °C | CCCn1c(=O)c2c(nc(C=Cc3cc(OC)c(OC)c(OC)c3S(=O)(=O)O)n2C)n(CCC)c1=O

Compound | melting point
CC(=O)c1ccccc1NC(=O)C(Cl)(Cl)Cl | 113 °C
CC(/C=C/c1sccc1-c1ccc2c(c1)C(C)(C)CCC2(C)C)=C\C(=O)O | 188 to 189 °C
OC1(c2cn(-c3ccc(Br)cc3)nn2)CN2CCC1CC2 (stereo unspecified) | 214 °C
